According to the Kinase Knowledgebase extract (Sharma et al. 2016):
pKi: −log10 of the molar value.

Biological target: CDK2 (human) (UniProt P24941)
Experiment: Enzyme Assay
Settings: for inhibition: concentration not given here

SMILES	inhibition [%]	pKi
COC(=O)CCCC(=O)N1CCC(Nc2nc(N)c(C(=O)c3c(F)cccc3F)s2)CC1	45	
Nc1nc(NC2CCN(C(=O)CCC(=O)c3ccc(F)cc3)CC2)sc1C(=O)c1c(F)cccc1F	7	
COc1ccc(CC(=O)N2CCC(Nc3nc(N)c(C(=O)c4c(F)cccc4F)s3)CC2)cc1C	62	
COc1ccc(C(=O)N2CCC(Nc3nc(N)c(C(=O)c4c(F)cccc4F)s3)CC2)c(Cl)c1	52	
CS(=O)(=O)CC(=O)N1CCC(Nc2nc(N)c(C(=O)c3c(F)cccc3F)s2)CC1	45	
C=CCc1ccccc1OCC(=O)N1CCC(Nc2nc(N)c(C(=O)c3c(F)cccc3F)s2)CC1	76	
COc1cc(SC)ccc1C(=O)N1CCC(Nc2nc(N)c(C(=O)c3c(F)cccc3F)s2)CC1	22	
COc1c(C)cccc1C(=O)N1CCC(Nc2nc(N)c(C(=O)c3c(F)cccc3F)s2)CC1	10	
Nc1nc(NC2CCN(C(=O)C3(c4ccccc4)CCCC3)CC2)sc1C(=O)c1c(F)cccc1F	-13	
Nc1nc(NC2CCN(C(=O)CCC3CCCCC3=O)CC2)sc1C(=O)c1c(F)cccc1F (centres undefined)	50	
CCC(C)(O)CC(=O)N1CCC(Nc2nc(N)c(C(=O)c3c(F)cccc3F)s2)CC1 (centres undefined)	47	
Nc1nc(NC2CCN(C(=O)C3CC(=O)c4ccccc43)CC2)sc1C(=O)c1c(F)cccc1F (centres undefined)	79	
Nc1nc(NC2CCN(C(=O)c3ccco3)CC2)sc1C(=O)c1c(F)cccc1F	49	
CCCCOCC(=O)N1CCC(Nc2nc(N)c(C(=O)c3c(F)cccc3F)s2)CC1	79	
Nc1nc(NC2CCN(C(=O)C(O)c3cccc(O)c3)CC2)sc1C(=O)c1c(F)cccc1F (centres undefined)	47	
COc1cc(C(=O)N2CCC(Nc3nc(N)c(C(=O)c4c(F)cccc4F)s3)CC2)cc(OC)c1C	58	

SMILES	inhibition [%]	pKi
Cc1cc(C)cc(CC(=O)N2CCC(Nc3nc(N)c(C(=O)c4c(F)cccc4F)s3)CC2)c1	75	
Nc1nc(NC2CCN(C(=O)CCc3c[nH]c4ccccc34)CC2)sc1C(=O)c1c(F)cccc1F	56	
Nc1nc(NC2CCN(C(=O)c3c(F)cccc3F)CC2)sc1C(=O)c1c(F)cccc1F	-20	
CCCC/C=C/C(=O)N1CCC(Nc2nc(N)c(C(=O)c3c(F)cccc3F)s2)CC1	27	
Nc1nc(NC2CCN(C(=O)COc3ccccc3)CC2)sc1C(=O)c1c(F)cccc1F	59	
CN(CCN)c1ccc(S(=O)(=O)N2CCC(Nc3nc(N)c(C(=O)c4c(F)cccc4F)s3)CC2)cn1		8.31
CCCCOc1ccc(C(C)(C)CC)cc1S(=O)(=O)N1CCC(Nc2nc(N)c(C(=O)c3c(F)cccc3F)s2)CC1	-30	
CC(=O)SC(C)CC(=O)N1CCC(Nc2nc(N)c(C(=O)c3c(F)cccc3F)s2)CC1 (centres undefined)	50	
Nc1nc(NC2CCN(C(=O)Cc3cccs3)CC2)sc1C(=O)c1c(F)cccc1F	73	
CCOC(=O)N1CCC(Nc2nc(N)c(C(=O)c3c(F)cccc3F)s2)CC1	-13	
Nc1nc(NC2CCN(C(=O)Cc3ccncc3)CC2)sc1C(=O)c1c(F)cccc1F	17	
Nc1nc(NC2CCN(C(=O)[C@H]3CCC(=O)O3)CC2)sc1C(=O)c1c(F)cccc1F	76	
Cc1cc(C)c(C(=O)N2CCC(Nc3nc(N)c(C(=O)c4c(F)cccc4F)s3)CC2)cc1C	44	
CS(=O)(=O)c1ccccc1S(=O)(=O)N1CCC(Nc2nc(N)c(C(=O)c3c(F)cccc3F)s2)CC1	-5	
Nc1nc(NC2CCN(C(=O)CCC(F)(F)F)CC2)sc1C(=O)c1c(F)cccc1F	45	
CC1(C)C2CC[C@]1(CS(=O)(=O)N1CCC(Nc3nc(N)c(C(=O)c4c(F)cccc4F)s3)CC1)C(=O)C2	-1	

Results, then the compound that gave them:

inhibition [%]	pKi	SMILES
48		Cc1ccccc1CCC(=O)N1CCC(Nc2nc(N)c(C(=O)c3c(F)cccc3F)s2)CC1
61		Nc1nc(NC2CCN(C(=O)/C=C/c3ccc(F)c(F)c3)CC2)sc1C(=O)c1c(F)cccc1F
10		Nc1nc(NC2CCN(C(=O)c3ccnc4ccccc34)CC2)sc1C(=O)c1c(F)cccc1F
39		Nc1nc(NC2CCN(C(=O)c3ccc(C=O)o3)CC2)sc1C(=O)c1c(F)cccc1F
67		Nc1nc(NC2CCN(C(=O)c3ccccn3)CC2)sc1C(=O)c1c(F)cccc1F
-6		CCOC(=O)CCCC(=O)N1CCC(Nc2nc(N)c(C(=O)c3c(F)cccc3F)s2)CC1
49		CC(O)(C(=O)N1CCC(Nc2nc(N)c(C(=O)c3c(F)cccc3F)s2)CC1)c1ccccc1 (centres undefined)
15		C=CCC(=O)N1CCC(Nc2nc(N)c(C(=O)c3c(F)cccc3F)s2)CC1
55		Cc1cccc(CC(=O)N2CCC(Nc3nc(N)c(C(=O)c4c(F)cccc4F)s3)CC2)c1
67		Nc1nc(NC2CCN(C(=O)COc3cccc(Cl)c3)CC2)sc1C(=O)c1c(F)cccc1F
42		Nc1nc(NC2CCN(C(=O)[C@H](O)Cc3ccccc3)CC2)sc1C(=O)c1c(F)cccc1F
51		Cc1cc(C(=O)N2CCC(Nc3nc(N)c(C(=O)c4c(F)cccc4F)s3)CC2)ccc1Cl
63		Nc1nc(NC2CCN(C(=O)COc3ccccc3O)CC2)sc1C(=O)c1c(F)cccc1F
75		CN(C)c1ccc(/C=C/C(=O)N2CCC(Nc3nc(N)c(C(=O)c4c(F)cccc4F)s3)CC2)cc1
51		CC(C)(O)CC(=O)N1CCC(Nc2nc(N)c(C(=O)c3c(F)cccc3F)s2)CC1
35		CC(C)C(C)C(=O)N1CCC(Nc2nc(N)c(C(=O)c3c(F)cccc3F)s2)CC1 (centres undefined)

inhibition [%]	pKi	SMILES
22		N#Cc1ccc(NCC(=O)N2CCC(Nc3nc(N)c(C(=O)c4c(F)cccc4F)s3)CC2)cc1
58		COc1ccc(C(O)C(=O)N2CCC(Nc3nc(N)c(C(=O)c4c(F)cccc4F)s3)CC2)cc1O (centres undefined)
74		CCc1ccc2[nH]c(C(=O)N3CCC(Nc4nc(N)c(C(=O)c5c(F)cccc5F)s4)CC3)cc2c1
36		Nc1nc(NC2CCN(C(=O)CCCCc3ccccc3)CC2)sc1C(=O)c1c(F)cccc1F
34		CCOc1ccc(/C=C/C(=O)N2CCC(Nc3nc(N)c(C(=O)c4c(F)cccc4F)s3)CC2)cc1
18		Nc1nc(NC2CCN(C(=O)c3cnccc3C(F)(F)F)CC2)sc1C(=O)c1c(F)cccc1F
51		COc1ccc(C(=O)N2CCC(Nc3nc(N)c(C(=O)c4c(F)cccc4F)s3)CC2)c(OC)n1
38		Cn1cccc1C(=O)N1CCC(Nc2nc(N)c(C(=O)c3c(F)cccc3F)s2)CC1
65		Nc1ccc(C(=O)NCC(=O)N2CCC(Nc3nc(N)c(C(=O)c4c(F)cccc4F)s3)CC2)cc1
80		CCOc1ccccc1/C=C/C(=O)N1CCC(Nc2nc(N)c(C(=O)c3c(F)cccc3F)s2)CC1
55		Nc1nc(NC2CCN(C(=O)c3cccc4ccccc34)CC2)sc1C(=O)c1c(F)cccc1F
50		CO[C@H](C(=O)N1CCC(Nc2nc(N)c(C(=O)c3c(F)cccc3F)s2)CC1)c1ccccc1
42		CSCCC(=O)N1CCC(Nc2nc(N)c(C(=O)c3c(F)cccc3F)s2)CC1
-20		CN(C)c1ccc(N=Nc2ccc(S(=O)(=O)N3CCC(Nc4nc(N)c(C(=O)c5c(F)cccc5F)s4)CC3)cc2)cc1
50		CC(SCc1ccccc1)C(=O)N1CCC(Nc2nc(N)c(C(=O)c3c(F)cccc3F)s2)CC1 (centres undefined)
69		C=CCC/C=C/C(=O)N1CCC(Nc2nc(N)c(C(=O)c3c(F)cccc3F)s2)CC1
